# Patent publication US9901592B2 (priority 2008, dated 2018)
# Where two headings read alike, the source gives them in different places.
# Key:
# [1] = test system: M. pneumoniae; test: microbe, parasite or virus in culture; assay type: cell-based; conditions: Mycoplasmoides pneumoniae
# [2] = test system: M. genitalium; assay type: cell-based; conditions: M. genitalium (5 isolates)
# [3] = test system: M. fermentans; assay type: cell-based; conditions: M. fermentans (15 isolates)
# [4] = test system: M. hominis; assay type: cell-based; conditions: M. hominis (13 isolates)
# [5] = test system: S. pyogenes; assay type: cell-based
# [6] = test system: intraphagocytic L. pneumophila ATCC 33153 (THP-1); assay type: cell-based; conditions: L. pneumophila ATCC 33153, 48 h
# [7] = test system: S. pneumoniae; test: mouse systemic infection model (PD50); assay type: in vivo
# [8] = test system: S. pyogenes; test: MIC of the strains of the mouse systemic infection model; assay type: cell-based; conditions: Streptococcus pyogenes
# [9] = test system: S. pneumoniae; test: mouse subcutaneous abscess model; assay type: in vivo; conditions: for average log10 CFU/gram of abscess: S. pneumoniae 1629, 10 mg/Kg PO
# Experimental: Example. Efficacy was evaluated in several infection models. […] PD50s were determined 24 hr post infection. CEM-101 was further evaluated in a subcutaneous abscess mouse model against S. pneumoniae. CD-1 female mice were infected via SC injection of bacteria mixed with cyclodextran beads. Two hr post infection, mice received a single oral dose of CEM 101 or control agents. At 48 hr post dose, mice were euthanized, abscesses aseptically removed and bacteria enumerated. CFU per abscess was determined and compared to the untreated control. […] 24 hr post treatment, the thighs were processed and CFU/gram of thigh determined.
# (§1) Example. Mouse Subcutaneous Abscess. Bacteria were prepared from an overnight plate culture by re-suspending in saline and adjusting the suspension to a 0.1 OD at 625 nm of a 1:10 dilution. The adjusted bacterial suspension was mixed 1:2 with cyclodextran beads prepared as per package instructions. The right flanks of the mice were shaven and injected subcutaneously with 0.2 ml of the bacterial inoculum. Two hours post infection mice were treated via oral gavage with either test article or control drug. 48 hours post infection, mice were euthanized, abscesses aseptically removed, homogenized, serially diluted and plated on bacterial growth agar. After overnight incubation, colonies were counted and CFUs/gram of abscess were determined.
# Example. The ability of CEM101 to reduce the microbial load in abscess infection model was also assessed against S. pneumoniae isolates.
# [10] = test system: S. pyogenes ATCC 8668; test: mouse subcutaneous abscess model; assay type: in vivo; conditions: 48 hr. post infection
# Experimental: as §1
# Example. Mouse Subcutaneous Abscess˜S. pyogenes ATCC 8668 (Average Log10 CFU/gram of Abscess). Abscess processing 48 hours post infection.
# [11] = test system: M. catarrhalis; test: microbe, parasite or virus in culture; assay type: cell-based
# [12] = test system: S. pneumoniae; test: neutropenic mouse thigh infection; assay type: in vivo; conditions: PO
compound,measurement,setting,value
"CC[C@H]1OC(=O)[C@@](C)(F)C(=O)[C@H](C)[C@@H](OC2OC(C)CC(N(C)C)C2O)[C@@](C)(OC)C[C@@H](C)C(=O)[C@H](C)[C@H]2N(CCCCn3cc(-c4cccc(N)c4)nn3)C(=O)O[C@]12C (stereo partly shown) [CEM-101, 11-N-4-(3-aminophenyl)-[1,2,3]triazol-1-yl]-butyl}-5-desosaminyl-3-oxo-2-fluoro-erythronolide A,-11,12-cyclic carbamate]",MIC50,[1],0.032 ng/mL
same,MIC Range,[2],≦0.000032 μg/mL
same,MIC Range,[3],≦0.008 μg/mL
same,MIC50,[3]; Mycoplasmopsis fermentans,≤ 8 ng/mL
same,MIC90,[3]; Mycoplasmopsis fermentans,≤ 8 ng/mL
same,MIC Range,[4],2 to 8 ng/mL
same,MIC50,"[4]; Metamycoplasma hominis, read-out: MIC50",4 ng/mL
same,MIC90,"[4]; Metamycoplasma hominis, read-out: MIC90",8 ng/mL
same,single step mutation frequency,"[5]; strain 237 Macrolide-R [L4 mutation], 2 × MIC",<1.3 × 10^−10
same,single step mutation frequency,"[5]; strain 237 Macrolide-R [L4 mutation], 4 × MIC",<1.3 × 10^−10
same,single step mutation frequency,"[5]; strain 237 Macrolide-R [L4 mutation], 8 × MIC",<1.3 × 10^−10
same,single step mutation frequency,"[5]; strain 2011 Macrolide-R [mef(A)], 2 × MIC",3.9 × 10^−8
same,single step mutation frequency,"[5]; strain 2011 Macrolide-R [mef(A)], 4 × MIC",<1.1 × 10^−10
same,single step mutation frequency,"[5]; strain 2011 Macrolide-R [mef(A)], 8 × MIC",<1.1 × 10^−10
same,single step mutation frequency,"[5]; strain 2094 Macrolide-R [erm(A)], 2 × MIC",5.3 × 10^−8
same,single step mutation frequency,"[5]; strain 2094 Macrolide-R [erm(A)], 4 × MIC",2.1 × 10^−9
same,single step mutation frequency,"[5]; strain 2094 Macrolide-R [erm(A)], 8 × MIC",<5.3 × 10^−10
same,single step mutation frequency,"[5]; strain 2132 Macrolide-S, 2 × MIC",<1.0 × 10^−10
same,single step mutation frequency,"[5]; strain 2132 Macrolide-S, 4 × MIC",<1.0 × 10^−10
same,single step mutation frequency,"[5]; strain 2132 Macrolide-S, 8 × MIC",<1.0 × 10^−10
same,single step mutation frequency,"[5]; strain 2368 Macrolide-R [erm(B)], 2 × MIC",<5.9 × 10^−11
same,single step mutation frequency,"[5]; strain 2368 Macrolide-R [erm(B)], 4 × MIC",<5.9 × 10^−11
same,single step mutation frequency,"[5]; strain 2368 Macrolide-R [erm(B)], 8 × MIC",<5.9 × 10^−11
same,Cs,[6],4.56 ×MIC
same,PD50,[7]; S. pneumoniae (macrolide susceptible),6.0 mg/kg
same,PD50,[7]; S. pneumoniae (mefR),23.2 mg/kg
same,PD50,[7]; S. pneumoniae serotype 19A,6.6 mg/kg
same,MIC,[8]; S. pyogenes (erythromycin R),1000 ng/mL
same,MIC,[8]; S. pyogenes (macrolide susceptible),15 ng/mL
same,average log10 CFU/gram of abscess,[9]; 24 hours,about 3 log10 CFU/gram
same,average log10 CFU/gram of abscess,[9]; 48 hours,about 3 log10 CFU/gram
same,log decrease of CFU from untreated mice,"[9]; abscess, 10 mg/Kg QD dose",4.2 log10
same,Average Log10 CFU/gram of Abscess,[10]; 10 mg/Kg,5.35 Log10 CFU/gram
same,Average Log10 CFU/gram of Abscess,[10]; 20 mg/Kg,2.53 Log10 CFU/gram
same,Occurrences at MIC (μg/ml) 1,[11],0
same,Occurrences at MIC (μg/ml) 2,[11],0
same,Occurrences at MIC (μg/ml) 4,[11],0
same,Occurrences at MIC (μg/ml) 8,[11],0
same,Occurrences at MIC (μg/ml) […],[11],0
same,Occurrences at MIC (μg/ml) ≧16,[11],0
same,MIC50,[11]; Moraxella catarrhalis,120 ng/mL
same,MIC90,[11]; Moraxella catarrhalis,120 ng/mL
same,MIC,"[11]; Moraxella catarrhalis, read-out: Occurrences at MIC (μg/ml) 0.03",1 µg/mL
same,MIC,"[11]; Moraxella catarrhalis, read-out: Occurrences at MIC (μg/ml) 0.06",5 µg/mL
same,MIC,"[11]; Moraxella catarrhalis, read-out: Occurrences at MIC (μg/ml) 0.5",1 µg/mL
same,MIC,"[11]; Moraxella catarrhalis, read-out: Occurrences at MIC (μg/ml) ≦0.008",1 µg/mL
same,Dose for 1 log10 Reduction from 24 hour controls,"[12]; S. pneumoniae 1629, QD",6.0 mg/Kg
same,Dose for 3 log10 Reduction from 24 hour controls,"[12]; S. pneumoniae 1629, QD",8.0 mg/Kg
same,1 log kill,"[12]; S. pneumoniae 6303, Q6",23.0 mg/Kg
same,EC50,"[12]; S. pneumoniae 6303, Q6",16.7 mg/kg
same,Static dose,"[12]; S. pneumoniae 6303, Q6",20.5 mg/kg
same,1 log kill,"[12]; S. pneumoniae 6303, Q8",23.0 mg/Kg
same,Emax,"[12]; S. pneumoniae 6303, Q8",5.01 log10CFU/thigh
same,Static dose,"[12]; S. pneumoniae 6303, Q8",12.1 mg/kg
same,1 log kill,"[12]; S. pneumoniae 6303, Q12",24.0 mg/Kg
same,Static dose,"[12]; S. pneumoniae 6303, Q12",19.2 mg/kg
same,Emax,"[12]; S. pneumoniae 6303, Q24",6.38 log10CFU/thigh
same,Static dose,"[12]; S. pneumoniae 6303, Q24",8.2 mg/kg
same,Dose for 1 log10 Reduction from 24 hour controls,"[12]; S. pneumoniae 6303, QD",1.2 mg/Kg
same,Dose for 2 log10 Reduction from 24 hour controls,"[12]; S. pneumoniae 6303, QD",3.0 mg/Kg
same,Dose for 3 log10 Reduction from 24 hour controls,"[12]; S. pneumoniae 6303, QD",5.0 mg/Kg
